A word on the half-life: it is how long it takes for the measured level to halve. By Cmax is commonly meant the peak of the concentration-time curve.

Common to all, as to format: in vivo
Data set [1] relates to Ctenocephalides felis. The data set can be described thus: Rapidity of action of topical compositions against flea infestation in cats (Example 1). As for the experimental part:
In this example, a comparative study of the efficacy of nitenpyram (rapidity of action) administered topically, alone or in combination with fipronil, compared with fipronil administered alone, against cat fleas, was carried out.
It is a randomized, blind, controlled efficacy study carried out in parallel on 4 groups of six cats, according to the recommendations of the guidelines of the Committee for Veterinary Medicinal Products (CVMP): “Guidelines for the testing and evaluation of the efficacy of antiparasitic substances for the treatment and prevention of tick and flea infestations in dogs and cats”, EMEA/CVMP/005/00-FINAL-Rev.1.
The cats used in this study were male or female, adult domestic cats more than 6 months old, of mixed breeds, but mainly of short-hair European breed, weighing between 2 and 5 kg. […]
6 days before the beginning of the study (D=−6), all the cats were infested with approximately 100 laboratory fleas, strain Ctenocephalides felis, of male or female gender. The fleas were then counted on the day before the treatment (D=−1) and then at different times after application of the treatment (1, 4, 12 and 24 hours after treatment).
To do this, all the fleas present on an animal are harvested by combing the cat and then counting after combing. The number of live fleas is thus determined. […]

The subject of data set [2] is Ctenocephalides felis. The data set can be described thus: Supplementary study of efficacy over time after weekly flea re-infestation of cats (Example 3). How it is done:
In this example, a comparative study of the efficacy, over time, of nitenpyram administered topically, alone or in combination with fipronil, compared with fipronil administered alone, against cat fleas, was carried out. It is the continuation of the study of example 1 using compositions A, B and C.
At a regular interval after the first administration (D=0), all the cats were infested with approximately 100 laboratory fleas, strain Ctenocephalides felis, of male or female gender. The re-infestations were thus carried out at D=7, D=14, D=21, D=28, D=35, D=42, D=49, D=56 and D=63. The fleas were then counted various times after application of the treatment (at 2, 4 and 12 hours after re-infestation at D=7, D=14, D=21 and D=28; at 4, 8 and 12 hours after re-infestation at D=35 and D=42; at 12, 24 and 48 hours after re-infestation at D=49; at 24 and 48 hours after re-infestation at D=56 and, finally, at 48 hours after re-infestation at D=63).
To do this, all the fleas present on an animal were harvested by combing the cat, and then counted after combing. The number of live fleas is thus determined. After each count, the live fleas are put back on the cat. […]

Data set [3] can be described thus: Comparative pharmacokinetics of nitenpyram administered orally and topically to cats (Example 4). Particulars: for Tmax: read-out: Tmax: time at which the maximum concentration of nitenpyram in the plasma is observed; for AUC: read-out: AUCtot: area under the curve of the nitenpyram concentration over time determined between t0 and the final measurement; for half-life: read-out: Thalf: half-life time (converted); for Cmax: read-out: Cmax: maximum amount of nitenpyram in the plasma. As for the experimental part:
In this example, a comparative study of the pharmacokinetics of nitenpyram administered topically and orally to cats was carried out.
The cats used in this study were prepared under the same conditions as those described in example 1.
It was verified, beforehand, that no trace of nitenpyram was detected in the plasma of the cats.
Ten young adult cats weighing between 2 and 6 kg are divided up into two groups: • a first group of 5 cats (female) received a single topical administration on the back between the shoulder blades at the beginning of the study; the topical composition is a solution containing 10% of nitenpyram (100 mg of nitenpyram per ml) and the amount administered is 0.5 ml per cat. • a second group (4 females and one male) received a single oral administration of the commercial product Capstar® given at the beginning of the study. The Capstar® product is a tablet comprising 11.4 mg of nitenpyram.
Blood samples were taken regularly, and centrifuged at 3000 rpm for 10 minutes at 4° C., the pellet is removed and the plasma is recovered for analysis.
The plasma concentration of nitenpyram is determined by the UPLC-MS/MS (Ultra-Performance Liquid Chromatography coupled to tandem mass spectrometry) method on an Acquity BEH C18 column and a Waters Quattro Premier XE mass […].

Where [4] appears, read: both sexes, in vivo, oral administration, Capstar tablet 11.4 mg nitenpyram.
The mark [5] stands for this setting: female, plasma, topical or ocular, 50 mg per cat, topical administration, 10% solution 0.5 ml per cat.

The structures appear in SMILES notation. Read-outs that look alike come from different tables or passages of the source.

As for `CCN(Cc1ccc(Cl)nc1)/C(=C/[N+](=O)[O-])NC` [nitenpyram, (E)-N-(6-chloro-3-pyridylmethyl)-N-ethyl-N′-methyl-2-nitrovinylidenediamine], the “effect of topical administration on cat fleas” value in the data set with Ctenocephalides felis [1] is “lethal effect on the cat fleas”; in the data set with Ctenocephalides felis [2], “rapid and sustained lethal effect on cat fleas”. For the same compound, the Tmax in data set [3] (both sexes, cat, in vivo, oral administration, Capstar tablet 11.4 mg nitenpyram) came to 1.3 h; in data set [3] (setting [5]) it was 15 h. Besides, the AUC in data set [3] (setting [4]) is 76800 ng·h/mL; in data set [3] (female, in vivo, topical or ocular, 50 mg per cat, topical administration, 10% solution 0.5 ml per cat), 86400 ng·h/mL. Further, the half-life was 9.8 h in data set [3] (setting [4]) and 69.1 h in data set [3] (setting [5]). Also, the Cmax in data set [3] (both sexes, in vivo, po, 11.4 mg, oral administration, Capstar tablet 11.4 mg nitenpyram) is over 5800 ng/mL; in data set [3] (setting [5]), 1290 ng/mL. Further, in data set [3] (oral, Capstar tablet), the “tolerance of oral administration” value is listed as “well tolerated”. Further, the “half-life time administered topically relative to orally” value in data set [3] (topical vs oral) was “more than 7 times”. Besides, the “tolerance of topical administration” value in data set [3] (topical, 10% solution 0.5 ml per cat) is recorded as “well tolerated locally”.

Values taken from patent publication US9131689B2, “Use of a 1-N-(halo-3-pyridylmethyl)-N-methylamino-1-alkylamino-2-nitroethylene derivative for preparing a topical veterinary pharmaceutical composition for combating external parasites” (priority 2007, dated 2015).
